By IC50 is commonly meant the concentration at which inhibition is half-maximal.

Molecules are shown by their SMILES.

T1 sequence (P21589 27-547): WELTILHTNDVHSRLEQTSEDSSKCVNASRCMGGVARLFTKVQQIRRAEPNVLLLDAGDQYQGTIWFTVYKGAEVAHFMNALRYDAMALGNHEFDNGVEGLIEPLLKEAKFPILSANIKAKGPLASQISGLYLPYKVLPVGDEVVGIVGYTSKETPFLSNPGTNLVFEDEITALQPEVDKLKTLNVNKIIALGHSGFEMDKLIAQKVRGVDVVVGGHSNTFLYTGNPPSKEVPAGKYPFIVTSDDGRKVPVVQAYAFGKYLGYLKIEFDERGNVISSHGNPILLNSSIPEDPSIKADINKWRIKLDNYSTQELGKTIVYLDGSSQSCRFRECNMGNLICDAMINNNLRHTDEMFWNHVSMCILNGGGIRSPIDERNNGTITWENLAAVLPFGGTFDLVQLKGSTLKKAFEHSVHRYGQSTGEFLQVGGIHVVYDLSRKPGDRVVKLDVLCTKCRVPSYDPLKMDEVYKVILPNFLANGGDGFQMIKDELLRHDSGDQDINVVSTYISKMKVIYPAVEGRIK

The target of one experiment is T1, recombinant CD73 (Homo sapiens (Human), UniProt P21589). Nature of the experiment: Assay 2: Inhibition of the CD73 enzyme in vitro (0.05 nM CD73, 1 hour 37° C., Malachite Green). It counts as biochemical. The settings on record: 0.05 nM CD73, 50 μM AMP, 1 hour at 37° C. An outline of the steps:
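Free phosphate was quantified from absorbance at 630 nm against a phosphate standard curve. This was read 5 min after Malachite Green was added at room temperature. Beforehand, the recombinant soluble enzyme reacted for 1 hour at 37° C.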
As to `C#C[C@@]1(O)[C@@H](COC(Cc2ccccc2)(C(=O)O)C(=O)O)O[C@@H](n2cnc3ccc(Cl)nc32)[C@@H]1O` [Example 58, 2-benzyl-2-(((2R,3S,4R,5R)-5-(5-chloro-3H-imidazo[4,5-b]pyridin-3-yl)-3-ethynyl-3,4-dihydroxytetrahydrofuran-2-yl)methoxy)malonic acid], the IC50 worked out at 1.6 nM. The same measure, in the same setting: the same measure for `C#C[C@@]1(O)[C@@H](COC(Cc2ccccc2)(C(=O)O)C(=O)O)O[C@@H](n2cnc3c(N(C)C4CCC4)nc(Cl)nc32)[C@@H]1O` [Example 81, 2-benzyl-2-(((2R,3S,4R,5R)-5-(2-chloro-6-(cyclobutyl(methyl)amino)-9H-purin-9-yl)-3-ethynyl-3,4-dihydroxytetrahydrofuran-2-yl)methoxy)malonic acid]: 0.4 nM; for `C#C[C@@]1(O)[C@@H](COC(Cc2ccc(N3CCCNC3=O)cc2)(C(=O)O)C(=O)O)O[C@@H](n2cnc3c(N)cc(Cl)nc32)[C@@H]1O` [Example 157, 2-(((2R,3S,4R,5R)-5-(7-amino-5-chloro-3H-imidazo[4,5-b]pyridin-3-yl)-3-ethynyl-3,4-dihydroxytetrahydrofuran-2-yl)methoxy)-2-(4-(2-oxotetrahydropyrimidin-1(2H)-yl)benzyl)malonic acid]: 0.37 nM; for `C#C[C@@]1(O)[C@@H](COC(Cc2ccccc2)(C(=O)O)C(=O)O)O[C@@H](n2cnc3c(N[C@@H](C)CC)nc(Cl)nc32)[C@@H]1O` [Example 74, 2-benzyl-2-(((2R,3S,4R,5R)-5-(6-((S)-sec-butylamino)-2-chloro-9H-purin-9-yl)-3-ethynyl-3,4-dihydroxytetrahydrofuran-2-yl)methoxy)malonic acid]: 2 nM.

For `C#C[C@@]1(O)[C@@H](CO[C@](Cc2ccccc2)(C(=O)O)c2cscn2)O[C@@H](n2cnc3c(NCC4CC4)nc(Cl)nc32)[C@@H]1O` (single isomer, unassigned) [Example 172], the IC50 worked out at 6 nM.

Take `C#C[C@@]1(O)[C@@H](COC(Cc2ccccc2)(C(=O)O)C(=O)O)O[C@@H](n2cnc3c(NC[C@@H](C)O)nc(Cl)nc32)[C@@H]1O` [Example 35, 2-benzyl-2-(((2R,3S,4R,5R)-5-(2-chloro-6-(((R)-2-hydroxypropyl)amino)-9H-purin-9-yl)-3-ethynyl-3,4-dihydroxytetrahydrofuran-2-yl)methoxy)malonic acid]: the IC50 came to 4 nM. The same measure, in the same setting: the same measure for `C#C[C@@]1(O)[C@@H](COC(Cc2ccc(N3CCCCC3=O)cc2)(C(=O)O)C(=O)O)O[C@@H](n2cnc3c(N)nc(Cl)nc32)[C@@H]1O` [Compound 10, 2-(((2R,3S,4R,5R)-5-(6-amino-2-chloro-9H-purin-9-yl)-3-ethynyl-3,4-dihydroxytetrahydrofuran-2-yl)methoxy)-2-(4-(2-oxopiperidin-1-yl)benzyl)malonic acid]: 0.26 nM; for `C#C[C@@]1(O)[C@@H](COC(Cc2ccc(N3CCCNC3=O)cc2)(C(=O)O)c2cscn2)O[C@@H](n2cnc3c(NC(C)C)nc(Cl)nc32)[C@@H]1O` (stereo partly drawn) [Example 176, 2-(((2R,3S,4R,5R)-5-(2-chloro-6-(isopropylamino)-9H-purin-9-yl)-3-ethynyl-3,4-dihydroxytetrahydrofuran-2-yl)methoxy)-3-(4-(2-oxotetrahydropyrimidin-1(2H)-yl)phenyl)-2-(thiazol-4-yl)propanoic acid]: 5 nM.

For the next experiment, the target named is T1, recombinant CD73. Nature of the experiment: Assay 1: Inhibition of the CD73 enzyme in vitro (0.5 nM CD73, 30 min room temperature, Malachite Green). It counts as biochemical. The settings on record: 0.5 nM CD73, 30 minutes at room temperature. As for the experimental part: For measurements of soluble CD73 enzyme activity, recombinant CD73 was obtained from R&D Systems, Cat. No. 5795-EN-010. […] Reactions were allowed to proceed for 30 minutes at room temperature before the addition of 100 μL Malachite Green (Cell Signaling Technology, Cat. No. 12776). After 5 minutes at room temperature, absorbance at 630 nm was determined on a microplate spectrophotometer. The concentration of inorganic phosphate was determined using a phosphate standard curve.
`C#C[C@@]1(O)[C@@H](COC(Cc2cccc(OC(F)(F)F)c2)(C(=O)O)C(=O)O)O[C@@H](n2cnc3c(N)nc(Cl)nc32)[C@@H]1O` [Example 23, 2-(((2R,3S,4R,5R)-5-(6-amino-2-chloro-9H-purin-9-yl)-3-ethynyl-3,4-dihydroxytetrahydrofuran-2-yl)methoxy)-2-(3-(trifluoromethoxy)benzyl)malonic acid]: the IC50 was found to be 5 nM.

With `C#C[C@@]1(O)[C@@H](CO[C@](Cc2ccccc2)(C(=O)O)c2cscn2)O[C@@H](n2cnc3c(N)nc(Cl)nc32)[C@@H]1O` (single isomer, unassigned) [Example 180], the half-inhibitory concentration (IC50) worked out at 9 nM. The same measure, in the same setting: in the case of `C#CCC(OC[C@H]1O[C@@H](n2cnc3c(N)nc(Cl)nc32)[C@H](O)[C@@]1(O)C#C)(C(=O)O)c1cscn1` (stereo partly drawn) [Example 184, 2-(((2R,3S,4R,5R)-5-(6-amino-2-chloro-9H-purin-9-yl)-3-ethynyl-3,4-dihydroxytetrahydrofuran-2-yl)methoxy)-2-(thiazol-4-yl)pent-4-ynoic acid] it was 102 nM. The same measure, in the same setting: the same measure for `CC[C@@]1(O)[C@@H](COC(C(=O)O)C(=O)O)O[C@@H](n2cnc3c(N)nc(Cl)nc32)[C@@H]1O` [Example 55, 2-(((2R,3S,4R,5R)-5-(6-amino-2-chloro-9H-purin-9-yl)-3-ethyl-3,4-dihydroxytetrahydrofuran-2-yl)methoxy)malonic acid]: 35 nM; for `C[C@@]1(O)[C@@H](COC(Cc2ccc(-c3ccccc3C(=O)O)cc2)(C(=O)O)c2cscn2)O[C@@H](n2cnc3c(N)nc(Cl)nc32)[C@@H]1O` (stereo partly drawn) [Example 200, 4′-(2-(((2R,3S,4R,5R)-5-(6-amino-2-chloro-9H-purin-9-yl)-3,4-dihydroxy-3-methyltetrahydrofuran-2-yl)methoxy)-2-carboxy-2-(thiazol-4-yl)ethyl)-[1,1′-biphenyl]-2-carboxylic acid]: 6090 nM; for `C#C[C@@]1(O)[C@@H](COC(Cc2ccsc2)(C(=O)O)C(=O)O)O[C@@H](n2cnc3c(N)nc(Cl)nc32)[C@@H]1O` [Example 24, 2-(((2R,3S,4R,5R)-5-(6-amino-2-chloro-9H-purin-9-yl)-3-ethynyl-3,4-dihydroxytetrahydrofuran-2-yl)methoxy)-2-(thiophen-3-ylmethyl)malonic acid]: 1.8 nM. Same read-out and setting: in the case of `C#C[C@@]1(O)[C@@H](COC(Cc2ccccc2)(C(=O)O)C(=O)O)O[C@@H](n2cnc3c(NC4CCOCC4)nc(Cl)nc32)[C@@H]1O` [Example 60, 2-benzyl-2-(((2R,3S,4R,5R)-5-(2-chloro-6-((tetrahydro-2H-pyran-4-yl)amino)-9H-purin-9-yl)-3-ethynyl-3,4-dihydroxytetrahydrofuran-2-yl)methoxy)malonic acid] it was 3 nM; in that of `C#C[C@@]1(O)[C@@H](COP(=O)(O)CP(=O)(O)O)O[C@@H](n2cnc3c(NCc4ccccc4)nc(Cl)nc32)[C@@H]1O` [Example 203, (((((2R,3S,4R,5R)-5-(6-(benzylamino)-2-chloro-9H-purin-9-yl)-3-ethynyl-3,4-dihydroxytetrahydrofuran-2-yl)methoxy)(hydroxy)phosphoryl)methyl)phosphonic acid], 4.2 nM; in that of `Nc1nc(Cl)nc2c1ncn2[C@@H]1O[C@H](COC(C(=O)O)C(=O)O)[C@](O)(C#Cc2ccnn2Cc2ccccc2)[C@H]1O` [Example 29, 2-(((2R,3S,4R,5R)-5-(6-amino-2-chloro-9H-purin-9-yl)-3-((1-benzyl-1H-pyrazol-5-yl)ethynyl)-3,4-dihydroxytetrahydrofuran-2-yl)methoxy)malonic acid], 2 nM. Turning to `C#C[C@@]1(O)[C@@H](CO[C@@](C#N)(Cc2ccccc2)C(=O)O)O[C@@H](n2cnc3c(N)nc(Cl)nc32)[C@@H]1O` (single isomer, unassigned) [Example 190], the IC50 stood at 9320 nM. For the compound `C#CCC(OC[C@H]1O[C@@H](n2cnc3c(N)nc(Cl)nc32)[C@H](O)[C@@]1(O)C#C)(C(=O)O)C(=O)O` [Example 25, 2-(((2R,3S,4R,5R)-5-(6-amino-2-chloro-9H-purin-9-yl)-3-ethynyl-3,4-dihydroxytetrahydrofuran-2-yl)methoxy)-2-(prop-2-yn-1-yl)malonic acid], the IC50 was found to be 7 nM. Still for that read-out and setting: in the case of `C#C[C@@]1(O)[C@@H](COP(=O)(O)CP(=O)(O)O)O[C@@H](n2cnc3c(N)nc(Cl)nc32)[C@@H]1O` [Example 202, (((((2R,3S,4R,5R)-5-(6-amino-2-chloro-9H-purin-9-yl)-3-ethynyl-3,4-dihydroxytetrahydrofuran-2-yl)methoxy)(hydroxy)phosphoryl)methyl)phosphonic acid] it was 148 nM; in that of `C#C[C@@]1(O)[C@@H](COC(Cc2ccccc2)(C(=O)O)c2csc(C(=O)O)n2)O[C@@H](n2cnc3c(N)nc(Cl)nc32)[C@@H]1O` (stereo partly drawn) [Example 196, 4-(1-(((2R,3S,4R,5R)-5-(6-amino-2-chloro-9H-purin-9-yl)-3-ethynyl-3,4-dihydroxytetrahydrofuran-2-yl)methoxy)-1-carboxy-2-phenylethyl)thiazole-2-carboxylic acid], 82 nM; in that of `C#C[C@@]1(O)[C@@H](COC(Cc2ccccc2)(C(=O)O)C(=O)O)O[C@@H](n2cnc3c(NC(C)C)nc(Cl)nc32)[C@@H]1O` [Example 93, 2-benzyl-2-(((2R,3S,4R,5R)-5-(2-chloro-6-(isopropylamino)-9H-purin-9-yl)-3-ethynyl-3,4-dihydroxytetrahydrofuran-2-yl)methoxy)malonic acid], 1.7 nM. As for `C#C[C@@]1(O)[C@@H](COC(Cc2cccc(OC)c2)(C(=O)O)C(=O)O)O[C@@H](n2cnc3c(N)nc(Cl)nc32)[C@@H]1O` [Example 52, 2-(((2R,3S,4R,5R)-5-(6-amino-2-chloro-9H-purin-9-yl)-3-ethynyl-3,4-dihydroxytetrahydrofuran-2-yl)methoxy)-2-(3-methoxybenzyl)malonic acid], the IC50 turned out to be 4 nM. Still for that read-out and setting: the same measure for `C#C[C@@]1(O)[C@@H](COC(C(N)=O)C(N)=O)O[C@@H](n2cnc3c(NC4CCCC4)nc(Cl)nc32)[C@@H]1O` [Example 116, 2-(((2R,3S,4R,5R)-5-(2-chloro-6-(cyclopentylamino)-9H-purin-9-yl)-3-ethynyl-3,4-dihydroxytetrahydrofuran-2-yl)methoxy)malonamide]: 8050 nM.

The values are drawn from patent US11078228B2, “Ectonucleotidase inhibitors and methods of use thereof” (Calithera Biosciences, Inc., priority 2018, dated 2021).
